This note sets out measurements from PubChem BioAssay (NCI).

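Grown in 96-well plates, cells were treated for 48 hours with each compound at five concentrations. Insufficient inhibition: endpoint recorded as highest concentration tested. At the TGI there is no net growth.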

Among the test systems are SF-268 CNS; SK-MEL-5 melanoma; PC-3 prostate; U251 CNS; OVCAR-5 ovarian; NCI-H23 lung; NCI-H460 lung; ACHN renal; HL-60(TB) leukemia; HT29 colon; A549 NSCLC; MDA-MB-435.
Holding throughout (assay): NCI anticancer screen, dose series, 48 h

As for `Cc1c(C#N)c2nnn(-c3cccc(Cl)c3)c(=O)n2c1-c1ccccc1`, the TGI in the experiment on SF-268 CNS is over 100 µM; in the experiment on SK-MEL-5 melanoma it was 19.2 µM; in the experiment on PC-3 prostate, 9.91 µM; in the experiment with U251 CNS it was 11.1 µM; in the experiment on OVCAR-5 ovarian it was over 100 µM; in the experiment on NCI-H23 lung it was over 100 µM. Also, the TGI in the experiment on NCI-H460 lung is over 100 µM; in the experiment with ACHN renal, over 100 µM; in the experiment on HL-60(TB) leukemia, over 100 µM; in the experiment on HT29 colon, 9.18 µM; with A549 NSCLC it was over 100 µM.

`CN(C)S(=O)(=O)c1ccc2[nH]c(O)c(C3=Nc4ccccc4C3=O)c2c1`: the TGI was 38.7 µM in the experiment with SF-268 CNS; over 100 µM with SK-MEL-5 melanoma; 90.4 µM in the experiment with PC-3 prostate; 24.9 µM in the experiment on U251 CNS; over 100 µM in the experiment with OVCAR-5 ovarian; 29.9 µM in the experiment with NCI-H23 lung. The TGI in the experiment on NCI-H460 lung was 97.5 µM; in the experiment on ACHN renal, 33.7 µM; in the experiment with MDA-MB-435, over 100 µM; with HT29 colon, over 100 µM; in the experiment on A549 NSCLC it was over 100 µM.

As to `C/C(=C\C(=O)Nc1ccc2n[nH]nc2c1)Nc1ccc2n[nH]nc2c1`, the TGI in the experiment with SF-268 CNS, in the experiment on SK-MEL-5 melanoma, in the experiment on U251 CNS, in the experiment on OVCAR-5 ovarian, with NCI-H23 lung and in the experiment on NCI-H460 lung was over 100 µM each time. Further, the TGI in the experiment on ACHN renal, in the experiment on HL-60(TB) leukemia, in the experiment on HT29 colon and with A549 NSCLC was over 100 µM throughout.

`CN(C)C(=O)C(F)(F)C(c1ccccc1Br)C1C(=O)N(C)C(=O)N(C)C1=O` (stereo not given): the TGI in the experiment with SF-268 CNS, in the experiment with SK-MEL-5 melanoma, with PC-3 prostate, in the experiment on U251 CNS, in the experiment on OVCAR-5 ovarian and with NCI-H23 lung was over 100 µM throughout. Also, the TGI in the experiment on NCI-H460 lung, in the experiment on ACHN renal, in the experiment on MDA-MB-435 and in the experiment with A549 NSCLC was over 100 µM in each case.

`COc1ccc(OC)c2c(C(C)=O)cccc12`: the TGI in the experiment on SF-268 CNS, in the experiment with SK-MEL-5 melanoma, in the experiment on PC-3 prostate, with U251 CNS, in the experiment on OVCAR-5 ovarian and in the experiment on NCI-H23 lung was over 100 µM each time. In addition, the TGI in the experiment on NCI-H460 lung, in the experiment with ACHN renal, in the experiment with HL-60(TB) leukemia and with A549 NSCLC was over 100 µM throughout.

`COC1OC2COC(=O)c3cc(O)c(O)c(O)c3-c3c(cc(O)c(O)c3O)C(=O)OC2C(O)C1O` (stereo not given): the TGI in the experiment with SF-268 CNS, in the experiment on SK-MEL-5 melanoma, in the experiment with PC-3 prostate, in the experiment with U251 CNS, in the experiment on OVCAR-5 ovarian and in the experiment with NCI-H23 lung was over 100 µM each time. In addition, the TGI with NCI-H460 lung was over 100 µM; in the experiment with ACHN renal, over 100 µM; in the experiment on MDA-MB-435, 94.8 µM; in the experiment on HT29 colon it was over 100 µM; with A549 NSCLC it was over 100 µM.

As to `CCOC(=O)[C@@]12C[C@](/C=C/OC)(O[Si](C)(C)C)[C@@]13c1cc(OC)c(OC)cc1CCN3C(=O)C2=O`, the TGI in the experiment with SF-268 CNS, with SK-MEL-5 melanoma, in the experiment on PC-3 prostate, in the experiment with U251 CNS, in the experiment on OVCAR-5 ovarian and in the experiment with NCI-H23 lung was over 100 µM in each case. The TGI in the experiment on NCI-H460 lung, in the experiment with ACHN renal, in the experiment on MDA-MB-435, in the experiment on HT29 colon and with A549 NSCLC was over 100 µM each time.

Regarding `O=C(/C=C/c1ccc(-c2ccccc2)cc1)NCc1ccc(C(=O)NCCc2ccccc2)cc1`, the TGI with SF-268 CNS, with SK-MEL-5 melanoma, with PC-3 prostate, in the experiment on U251 CNS, in the experiment on OVCAR-5 ovarian and in the experiment on NCI-H23 lung was over 100 µM each time. The TGI in the experiment on NCI-H460 lung, in the experiment on ACHN renal, in the experiment with MDA-MB-435, with HT29 colon and in the experiment on A549 NSCLC was over 100 µM in each case.

As to `C[C@]12CC[C@H]3[C@@H](CC=C4C[C@@H](O)CC[C@@]43C)[C@@H]1C/C(=C\c1cccnc1)[C@@H]2O`, the TGI is over 100 µM in the experiment on PC-3 prostate; 28.7 µM with U251 CNS; over 100 µM with OVCAR-5 ovarian; over 100 µM in the experiment with NCI-H23 lung; over 100 µM in the experiment on NCI-H460 lung; 32.2 µM with ACHN renal. For the same compound, the TGI with MDA-MB-435, with HT29 colon and with A549 NSCLC was over 100 µM in each case.

For `C=CCOCC1C2CCC3(OCCO3)C21` (stereo not given), the TGI with SF-268 CNS, with SK-MEL-5 melanoma, in the experiment on PC-3 prostate, in the experiment on U251 CNS, with OVCAR-5 ovarian and in the experiment with NCI-H23 lung was over 100 µM throughout. The TGI with NCI-H460 lung, in the experiment on ACHN renal, in the experiment on MDA-MB-435, with HT29 colon and in the experiment with A549 NSCLC was over 100 µM throughout.

Consider `Nc1nc(SCc2ccccc2Cl)c2ncn(C3OC(CO)C(O)C3O)c2n1` (stereo not given), for which the TGI in the experiment on SF-268 CNS, in the experiment on SK-MEL-5 melanoma, in the experiment on U251 CNS, in the experiment on OVCAR-5 ovarian, in the experiment with NCI-H23 lung and in the experiment with NCI-H460 lung was over 100 µM each time. The TGI in the experiment on ACHN renal, in the experiment with HL-60(TB) leukemia, in the experiment with HT29 colon and with A549 NSCLC was over 100 µM in each case.

In the case of `Nc1nc(Cl)c2ncn(CCCC(c3ccccc3)P(=O)(O)O)c2n1` (stereo not given), the TGI with SF-268 CNS, in the experiment on SK-MEL-5 melanoma, in the experiment on U251 CNS, with OVCAR-5 ovarian, in the experiment on NCI-H23 lung and in the experiment with NCI-H460 lung was over 100 µM throughout. In addition, the TGI in the experiment on ACHN renal, in the experiment with HL-60(TB) leukemia, with HT29 colon and with A549 NSCLC was over 100 µM in each case.

On to `CSc1cc(Cl)c(C)cc1S(=O)(=O)NC(=O)NNc1ccc(C)cc1`, for which the TGI with SF-268 CNS, in the experiment with SK-MEL-5 melanoma, in the experiment with PC-3 prostate, with U251 CNS, in the experiment with OVCAR-5 ovarian and with NCI-H460 lung was over 100 µM throughout. In addition, the TGI with ACHN renal, in the experiment with MDA-MB-435, in the experiment on HT29 colon and in the experiment with A549 NSCLC was over 100 µM throughout.
